In the Deep4Chem optical property database:
Each block holds one molecule with its values, some of them ahead of it.

Test: solvent given as SMILES

emission maximum (in CC#N): 416 nm | emission maximum (in CCCCCCCCCCCCCCCC): 381 nm | emission maximum (in CO): 443 nm | emission maximum (in ClC(Cl)Cl): 398 nm | emission maximum (in c1ccccc1): 395 nm
SMILES: O=C1c2ccccc2NCN1Cc1ccccc1

SMILES: COc1cc(/C=C/c2ccncc2)c(OC)cc1C=O
emission maximum (in C1CCOC1): 448 nm | emission maximum (in CC#N): 465 nm | emission maximum (in CN(C)C=O): 463 nm | emission maximum (in Cc1ccccc1): 446 nm | emission maximum (in ClCCl): 460 nm

emission maximum (in ClC(Cl)Cl): 699 nm
SMILES: CN1C(=CC2=C([O-])C(=CC3=[N+](C)c4ccccc4C3(C)C)C2=C2C(=O)c3ccccc3C2=O)C(C)(C)c2ccccc21

emission maximum (in c1ccccc1): 408 nm
SMILES: CCOC(=O)CSc1nc2c(c(C#N)c1C#N)CCCCCC2

SMILES: Cc1ccc(-n2c3ccccc3c3cc(C=C(C#N)C#N)ccc32)cc1
emission maximum (in C1CCOC1): 454 nm | emission maximum (in CC#N): 516 nm | emission maximum (in CC(C)=O): 502 nm | emission maximum (in CCOC(C)=O): 474 nm | emission maximum (in CO): 519 nm | emission maximum (in CS(C)=O): 524 nm | emission maximum (in Cc1ccccc1): 454 nm | emission maximum (in ClC(Cl)Cl): 478 nm

emission maximum (in CC#N): 598 nm | emission maximum (in CCCCCC): 604 nm | emission maximum (in ClCCl): 602 nm
SMILES: CCCCCCCCOc1ccc(C2=C3C(C)=C(C#Cc4ccc(B(c5c(C)cc(C)cc5C)c5c(C)cc(C)cc5C)cc4)C(C)=[N+]3[B-](F)(F)n3c(C)c(C#Cc4ccc(B(c5c(C)cc(C)cc5C)c5c(C)cc(C)cc5C)cc4)c(C)c32)cc1

emission maximum (in CO): 611 nm | emission maximum (in O): 641 nm | emission maximum (in OCCO): 608 nm | emission maximum (in [2H]O[2H]): 641 nm
SMILES: O=C(O)C1=C/C(=C/C=[N+]2/c3cc(O)c(C[C@@H]4O[C@H](CO)[C@@H](O)C(O)[C@H]4O)cc3C[C@H]2C(=O)O)C[C@H](C(=O)O)N1 (stereo partly specified)

emission maximum (in ClCCl): 538 nm
SMILES: COc1ccc(C#Cc2c3ccccc3c(C#Cc3ccc(OC)cc3)c3cc4sc(C)cc4cc23)cc1

emission maximum (in ClC(Cl)Cl): 567 nm
SMILES: N#Cc1nc(N(Cc2ccccc2I)Cc2ccccc2I)c(C#N)nc1N(Cc1ccccc1I)Cc1ccccc1I

emission maximum (in CC#N): 392 nm
SMILES: Cc1ccc(-c2ccc(/C=C/c3ccccc3)cn2)nc1

emission maximum (in ClCCl): 600 nm
SMILES: CC1=C(C#Cc2ccc([Si](c3ccccc3)(c3ccccc3)c3ccccc3)cc2)C(C)=[N+]2C1=C(c1ccccc1)c1c(C)c(C#Cc3ccc([Si](c4ccccc4)(c4ccccc4)c4ccccc4)cc3)c(C)n1[B-]2(F)F

SMILES: CC(C)(C)c1ccc(C2=c3sc4ccccc4c3=[N+]3C2=Nc2c(-c4ccc(C(C)(C)C)cc4)c4sc5ccccc5c4n2[B-]3(F)F)cc1
emission maximum (in C1CCOC1): 800 nm | emission maximum (in Cc1ccccc1): 796 nm | emission maximum (in ClC(Cl)Cl): 794 nm

emission maximum (in CC#N): 497 nm | emission maximum (in ClCCl): 478 nm
SMILES: Cc1cc(O)c(C(=O)/C=C/c2ccc(Cl)cc2)c(=O)o1

SMILES: c1ccc2c(c1)[nH]c1cccnc12
emission maximum (in C1CCCCC1): 341 nm | emission maximum (in C1CCOC1): 352 nm | emission maximum (in C1COCCO1): 367 nm | emission maximum (in CCO): 385 nm | emission maximum (in CN(C)C=O): 371 nm | emission maximum (in Cc1ccccc1): 350 nm | emission maximum (in ClC(Cl)Cl): 369 nm | emission maximum (in Clc1ccccc1): 364 nm

emission maximum (in C1CCCCC1): 459.98 nm | emission maximum (in C1CCOC1): 483.09 nm | emission maximum (in CN(C)C=O): 501 nm | emission maximum (in CO): 510.99 nm | emission maximum (in ClC(Cl)Cl): 490.92 nm | emission maximum (in c1ccccc1): 471.03 nm
SMILES: CC1(C)CCc2c(c3ccccc3c3nc4ccccc4nc23)O1

SMILES: CC1(C)Nc2cc(Cl)ccc2-c2[nH]c3ccccc3c(=O)c21
emission maximum (in C1CCOC1): 474 nm | emission maximum (in CC#N): 496 nm | emission maximum (in CCCCO): 505 nm | emission maximum (in CCCO): 505 nm | emission maximum (in CCO): 506 nm | emission maximum (in CCOC(C)=O): 482 nm | emission maximum (in CN(C)C=O): 493 nm | emission maximum (in CO): 513 nm | emission maximum (in CS(C)=O): 494 nm | emission maximum (in Cc1ccccc1): 460 nm | emission maximum (in ClC(Cl)(Cl)Cl): 451 nm | emission maximum (in ClCCl): 473 nm | emission maximum (in O): 536 nm | emission maximum (in c1ccccc1): 462 nm

emission maximum (in CCO): 582 nm | emission maximum (in ClCCl): 582 nm
SMILES: COc1ccc(-c2c3ccc(=[N+]4CCCCC4)cc-3oc3cc(N4CCCCC4)ccc23)cc1

emission maximum (in CC(C)O): 562 nm | emission maximum (in CCO): 564 nm | emission maximum (in CO): 563.8 nm | emission maximum (in O): 588.3 nm
SMILES: Cc1cc2nc3cc(C)c(N)cc3[n+](-c3ccccc3)c2cc1N

SMILES: c1ccc2sc(-c3ccc(-c4nnc(-c5ccc(-c6nnc(-c7ccc(-c8cc9ccccc9s8)s7)o6)cc5)o4)s3)cc2c1
emission maximum (in C1COCCO1): 397 nm | emission maximum (in CC#N): 399 nm | emission maximum (in CC(=O)N(C)C): 406 nm | emission maximum (in CCCCCCCCCCO): 389 nm | emission maximum (in CCCCCCCCO): 399 nm | emission maximum (in CCCCCCO): 399 nm | emission maximum (in CCCCO): 399 nm | emission maximum (in CCO): 400 nm | emission maximum (in CS(C)=O): 423 nm | emission maximum (in Cc1ccccc1): 399 nm | emission maximum (in ClC(Cl)Cl): 399 nm

emission maximum (in CCO): 466 nm
SMILES: CCOC(=O)c1cc(C(=O)OCC)c2cc(O)ccc2n1

emission maximum (in C1COCCO1): 428 nm
SMILES: c1ccc(-c2nc(-c3ccc(-c4ccc(-c5nc(-c6ccccc6)c(-c6ccccc6)o5)cc4)cc3)oc2-c2ccccc2)cc1

SMILES: O=S(=O)(c1ccc(N2c3ccccc3N(c3ccccc3)c3ccccc32)cc1)c1ccc(N2c3ccccc3N(c3ccccc3)c3ccccc32)cc1
emission maximum (in Cc1ccccc1): 577 nm | emission maximum (in c1cc(-n2c3ccccc3c3ccccc32)cc(-n2c3ccccc3c3ccccc32)c1): 580 nm

emission maximum (in CO): 644 nm | emission maximum (in ClC(Cl)Cl): 645 nm
SMILES: CCN1C(=CC2=C([O-])C(=CC3=[N+](CC)c4ccccc4C3(C)C)C2=O)C(C)(C)c2ccccc21

emission maximum (in CC#N): 553 nm | emission maximum (in CCCCCC): 560 nm | emission maximum (in CCOC(C)=O): 556 nm | emission maximum (in CO): 550 nm | emission maximum (in ClCCl): 555 nm
SMILES: COC1=[N+]2C(=C(c3ccccc3)c3cc(SC#N)c(OC)n3[B-]2(F)F)C=C1SC#N

emission maximum (in CCCCCC): 526 nm
SMILES: CC(C)[Si](C#Cc1c2nsnc2c(C#C[Si](C(C)C)(C(C)C)C(C)C)c2nc3c(nc12)C1c2ccccc2C3c2ccccc21)(C(C)C)C(C)C

emission maximum (in CC#N): 501 nm
SMILES: Oc1ccccc1/C=N/c1cc2nc3ccccc3nc2cc1/N=C/c1ccccc1O

emission maximum (in ClC(Cl)Cl): 734 nm
SMILES: COc1ccc2c(c1)CCc1c(-c3ccccc3)c3n(c1-2)[B-](F)(F)[N+]1=C2C(=C(c4ccccc4)C1=N3)CCc1ccccc12

emission maximum (in C1CCCCC1): 333.89 nm
SMILES: Cc1ccc(-c2ccccc2)cc1

emission maximum (in C1CCCCC1): 318.98 nm
SMILES: Cc1ccccc1-c1ccccc1C

emission maximum (in C1CCCCC1): 370 nm | emission maximum (in CO): 380 nm
SMILES: C/C(=C\c1ccc(C)cc1)c1nc2ccccc2o1

SMILES: O=P1(c2ccccc2)c2ccc(N3c4ccccc4Sc4ccccc43)cc2-c2cc(N3c4ccccc4Sc4ccccc43)ccc21
emission maximum (in Cc1ccccc1): 559 nm | emission maximum (in c1ccc2c(c1)c1ccccc1n2-c1ccc(-c2ccc(-n3c4ccccc4c4ccccc43)cc2)cc1): 555 nm

emission maximum (in C1CCOC1): 494 nm
SMILES: C[P+](c1c2ccccc2cc2ccccc12)(c1c2ccccc2cc2ccccc12)c1c2ccccc2cc2ccccc12

emission maximum (in ClC(Cl)Cl): 555 nm
SMILES: CCn1c2ccccc2oc2c(C#N)c3oc4ccccc4oc3c(C#N)c21

SMILES: N#Cc1cc(C#N)c(-n2c3ccccc3c3cc(-c4cccc5c4c4ccccc4n5-c4cc(-n5c6ccccc6c6ccccc65)c(C#N)cc4C#N)ccc32)cc1-n1c2ccccc2c2ccccc21
emission maximum (in O=P(c1ccccc1)(c1ccccc1)c1ccccc1Oc1ccccc1P(=O)(c1ccccc1)c1ccccc1): 448 nm

emission maximum (in C1COCCO1): 564 nm | emission maximum (in CC#N): 574 nm | emission maximum (in CCO): 570 nm | emission maximum (in CCOC(C)=O): 566 nm | emission maximum (in O): 577 nm
SMILES: COc1ccc(/C=C/C2=NC(=C\c3ccncc3)/C(=O)N2C)cc1

emission maximum (in C1CCOC1): 503 nm
SMILES: C1=C(c2ccccc2)C=C(c2ccccc2)/C1=C/c1ccc(-c2cccs2)s1

emission maximum (in O): 399 nm
SMILES: Cc1cc(-c2ccc(-c3n(C)c4ccccc4[n+]3C)cc2)ccc1-c1ccc(-c2n(C)c3ccccc3[n+]2C)cc1
